# Active and inactive are the calls of the source. The calls are words filed in the database; no cut-off is given here.
# Legend:
# Mus musculus [1] = species: Mus musculus; details: 20 mg/kg
# Description: Inhibition of chlorpyrifos-induced testicular damage in albino mouse assessed as appearance of cellular vaculations in germinal epithelium at 20 mg/kg, qd administered via oral gavage followed by chlorpyrifos challenge at 30 mins post dose by haematoxylin and eosin staining-based light microscopic analysis
# [2] = Inhibition of ROS generation in human PMN at 0.78 ug/ml after 50 mins by luminol-based chemiluminescence assay relative to control; format: functional
# PC-3 = test: Antiproliferative activity human PC3 cells after 48 hrs by propidium iodide staining-based fluorescence assay; format: functional, cell-based; details: PC-3, 48 h
# A549 = test: Antiproliferative activity human A549 cells after 48 hrs by propidium iodide staining-based fluorescence assay; format: functional, cell-based; details: A549, 48 h
# [3] = Inhibition of ROS generation in human PMN at 3.13 ug/ml after 50 mins by luminol-based chemiluminescence assay relative to control; format: functional
# Mus musculus [4] = test: Inhibition of chlorpyrifos-induced fibrosis in albino mouse testis assessed as thin fibrous capsule at 20 mg/kg, qd administered via oral gavage followed by chlorpyrifos challenge at 30 mins post dose by masson's trichrome staining-based light microscopic analysis; format: functional, organism-based
# [5] = molecular target: Serine/threonine-protein kinase B-raf (Mus musculus, UniProt P28028, V600E); test: Inhibition of mouse full-length GST-tagged BRAF V600E mutant using recombinant human full length N-terminal His-tagged MEK1 as substrate preincubated for 60 mins followed by substrate addition and measured after 25 mins by ELISA
# [6] = Inhibition of ROS generation in human PMN at 12.5 ug/ml after 50 mins by luminol-based chemiluminescence assay relative to control; format: functional
# Mus musculus [7] = test: (§1) Inhibition of chlorpyrifos-induced testicular damage in albino mouse assessed as increase in spermatogenic cell layers at 20 mg/kg, qd administered via oral gavage followed by chlorpyrifos challenge at 30 mins post dose by haematoxylin and eosin staining-based light microscopic analysis; format: functional, organism-based
# [8] = (§2) Inhibition of ROS generation in human PMN after 50 mins by luminol-based chemiluminescence assay; format: functional
# Homo sapiens = species: Homo sapiens; test: as §2; format: functional
# Tubulin (Homo sapiens) = Tubulin (Homo sapiens) (UniProt P68371+Q9H4B7+P0DPH7+P68366+Q13509+Q71U36+P04350+Q3ZCM7+P07437+P68363+Q9BQE3+Q6PEY2+Q13885+Q9BVA1+Q9BUF5); test: Inhibition of tubulin (unknown origin) polymerization assessed as tubulin assembly rate by fluorescence assay; format: protein-complex assay
# Mus musculus [9] = species: Mus musculus; details: 20 mg/kg; remark: listed apart in the source
# Description: Inhibition of chlorpyrifos-induced testicular damage in albino mouse assessed as appearance of vesicular nuclei in spermatogenic cells at 20 mg/kg, qd administered via oral gavage followed by chlorpyrifos challenge at 30 mins post dose by haematoxylin and eosin staining-based light microscopic analysis
# Mus musculus [10] = species: Mus musculus; details: 20 mg/kg; remark: listed apart in the source
# Description: Inhibition of chlorpyrifos-induced testicular damage in albino mouse assessed as absence of sloughed cells at 20 mg/kg, qd administered via oral gavage followed by chlorpyrifos challenge at 30 mins post dose by haematoxylin and eosin staining-based light microscopic analysis
# HT-29 = test: Antiproliferative activity human HT-29 cells after 48 hrs by propidium iodide staining-based fluorescence assay; format: functional, cell-based; details: HT-29, 48 h
# [11] = Inhibition of ROS generation in human PMN at 6.25 ug/ml after 50 mins by luminol-based chemiluminescence assay relative to control; format: functional
# [12] = Antioxidant activity assessed as DPPH radical scavenging activity at 10 uM after 30 mins dark incubation; format: functional
# Mus musculus [13] = test: Inhibition of chlorpyrifos-induced caspase3 epression in albino mouse testes at 20 mg/kg, qd administered via oral gavage followed by chlorpyrifos challenge at 30 mins post dose by immunohistochemical analysis; format: functional, organism-based
# Mus musculus [14] = test: Inhibition of chlorpyrifos-induced fibrosis in albino mouse testis assessed as decrease in collagen in interstitium at 20 mg/kg, qd administered via oral gavage followed by chlorpyrifos challenge at 30 mins post dose by masson's trichrome staining-based light microscopic analysis; format: functional, organism-based
# Mus musculus [15] = species: Mus musculus; details: 20 mg/kg; remark: listed apart in the source
# Description: Inhibition of chlorpyrifos-induced testicular damage in albino mouse assessed as appearance of spermatozoa tails in narrow lumina at 20 mg/kg, qd administered via oral gavage followed by chlorpyrifos challenge at 30 mins post dose by haematoxylin and eosin staining-based light microscopic analysis
# MCF7 [16] = test: Antiproliferative activity human MCF7 cells after 48 hrs by propidium iodide staining-based fluorescence assay; format: functional, cell-based; details: MCF7, 48 h
# [17] = Inhibition of ROS generation in human PMN at 1.56 ug/ml after 50 mins by luminol-based chemiluminescence assay relative to control; format: functional
# [18] = Cytotoxicity against human MCF10A cells assessed as cell viability at 50 uM after 96 hrs by MTT assay relative to control; format: cell-based, MCF-10A; details: read-out: Activity
# Mus musculus [19] = test: Inhibition of chlorpyrifos-induced iNOS epression in albino mouse testes at 20 mg/kg, qd administered via oral gavage followed by chlorpyrifos challenge at 30 mins post dose by immunohistochemical analysis; format: functional, organism-based
# [20] = Antioxidant activity assessed as DPPH radical scavenging activity at 100 uM after 30 mins dark incubation; format: functional
# Mus musculus [21] = species: Mus musculus; details: 20 mg/kg; remark: listed apart in the source
# Description: Inhibition of chlorpyrifos-induced testicular damage in albino mouse assessed as appearance of separated semniferous tubules by narrow interstitium without exudate at 20 mg/kg, qd administered via oral gavage followed by chlorpyrifos challenge at 30 mins post dose by haematoxylin and eosin staining-based light microscopic analysis
# MIA PaCa-2 = test: Antiproliferative activity human MIAPaCa2 cells after 48 hrs by propidium iodide staining-based fluorescence assay; format: functional, cell-based; details: MIA PaCa-2, 48 h
# [22] = Antioxidant activity assessed as DPPH radical scavenging activity at 50 uM after 30 mins dark incubation; format: functional
# MDA-MB-435 = test: Growth inhibition of human MDA-MB-435 cells after 48 hrs by SRB assay; format: functional; details: MDA-MB-435, 48 h
# MCF7 [23] = test: Growth inhibition of human MCF7 cells after 48 hrs by SRB assay; format: functional; details: MCF7, 48 h
# [24] = molecular target: Epidermal growth factor receptor (Homo sapiens, UniProt P00533); test: Inhibition of His6-tagged EGFR (unknown origin) cytoplasmic domain expressed in baculovirus infected Sf9 insect cells after 10 mins followed by addition of ATP-MgCl2 and measured after 1 hr by time-resolved fluorometric analysis
# Mus musculus [25] = test: as §1, with “appearance of well-organized” for “increase in”, “spermatogenic” for “spermatogenic cell”, “layers at different stages of spermatogenesis” for “layers”; format: functional, organism-based
# Mus musculus [26] = test: Inhibition of chlorpyrifos-induced testicular damage in albino mouse assessed as appearance of spermatozoa tails in lumina at 20 mg/kg, qd administered via oral gavage followed by chlorpyrifos challenge at 30 mins post dose by haematoxylin and eosin staining-based light microscopic analysis; format: functional, organism-based
# Mus musculus [27] = test: as §1, with “absence of crowdedness of interstitial cells with relatively low exudate” for “increase in spermatogenic cell layers”; format: functional, organism-based
# Mus musculus [28] = test: Inhibition of chlorpyrifos-induced testicular damage in albino mouse assessed as appearance of normal sertoli cells at 20 mg/kg, qd administered via oral gavage followed by chlorpyrifos challenge at 30 mins post dose by haematoxylin and eosin staining-based light microscopic analysis; format: functional, organism-based
# Chain of Serine/threonine-protein kinase B-raf (P28028 whole entry, looked up, stated change not applied): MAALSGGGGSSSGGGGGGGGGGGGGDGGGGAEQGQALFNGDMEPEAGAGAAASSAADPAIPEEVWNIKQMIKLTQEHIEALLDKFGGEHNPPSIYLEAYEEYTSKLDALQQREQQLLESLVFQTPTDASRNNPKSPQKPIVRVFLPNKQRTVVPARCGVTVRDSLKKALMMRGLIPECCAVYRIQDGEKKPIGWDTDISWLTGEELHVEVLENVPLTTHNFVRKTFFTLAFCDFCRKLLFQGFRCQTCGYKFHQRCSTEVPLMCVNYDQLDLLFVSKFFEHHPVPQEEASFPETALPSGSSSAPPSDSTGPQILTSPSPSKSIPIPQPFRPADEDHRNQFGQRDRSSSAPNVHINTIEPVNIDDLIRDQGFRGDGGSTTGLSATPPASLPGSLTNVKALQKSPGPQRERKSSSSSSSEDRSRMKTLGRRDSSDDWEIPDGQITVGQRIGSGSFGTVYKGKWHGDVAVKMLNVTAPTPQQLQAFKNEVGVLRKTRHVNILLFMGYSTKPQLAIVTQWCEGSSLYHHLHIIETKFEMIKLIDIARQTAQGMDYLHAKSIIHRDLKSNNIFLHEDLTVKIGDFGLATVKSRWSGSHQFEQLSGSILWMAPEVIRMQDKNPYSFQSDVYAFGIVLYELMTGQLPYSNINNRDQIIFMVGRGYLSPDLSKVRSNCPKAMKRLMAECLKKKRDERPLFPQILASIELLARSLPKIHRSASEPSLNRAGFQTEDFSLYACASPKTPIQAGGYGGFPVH
# Chain of Epidermal growth factor receptor (P00533 whole entry, the tested form may be a part): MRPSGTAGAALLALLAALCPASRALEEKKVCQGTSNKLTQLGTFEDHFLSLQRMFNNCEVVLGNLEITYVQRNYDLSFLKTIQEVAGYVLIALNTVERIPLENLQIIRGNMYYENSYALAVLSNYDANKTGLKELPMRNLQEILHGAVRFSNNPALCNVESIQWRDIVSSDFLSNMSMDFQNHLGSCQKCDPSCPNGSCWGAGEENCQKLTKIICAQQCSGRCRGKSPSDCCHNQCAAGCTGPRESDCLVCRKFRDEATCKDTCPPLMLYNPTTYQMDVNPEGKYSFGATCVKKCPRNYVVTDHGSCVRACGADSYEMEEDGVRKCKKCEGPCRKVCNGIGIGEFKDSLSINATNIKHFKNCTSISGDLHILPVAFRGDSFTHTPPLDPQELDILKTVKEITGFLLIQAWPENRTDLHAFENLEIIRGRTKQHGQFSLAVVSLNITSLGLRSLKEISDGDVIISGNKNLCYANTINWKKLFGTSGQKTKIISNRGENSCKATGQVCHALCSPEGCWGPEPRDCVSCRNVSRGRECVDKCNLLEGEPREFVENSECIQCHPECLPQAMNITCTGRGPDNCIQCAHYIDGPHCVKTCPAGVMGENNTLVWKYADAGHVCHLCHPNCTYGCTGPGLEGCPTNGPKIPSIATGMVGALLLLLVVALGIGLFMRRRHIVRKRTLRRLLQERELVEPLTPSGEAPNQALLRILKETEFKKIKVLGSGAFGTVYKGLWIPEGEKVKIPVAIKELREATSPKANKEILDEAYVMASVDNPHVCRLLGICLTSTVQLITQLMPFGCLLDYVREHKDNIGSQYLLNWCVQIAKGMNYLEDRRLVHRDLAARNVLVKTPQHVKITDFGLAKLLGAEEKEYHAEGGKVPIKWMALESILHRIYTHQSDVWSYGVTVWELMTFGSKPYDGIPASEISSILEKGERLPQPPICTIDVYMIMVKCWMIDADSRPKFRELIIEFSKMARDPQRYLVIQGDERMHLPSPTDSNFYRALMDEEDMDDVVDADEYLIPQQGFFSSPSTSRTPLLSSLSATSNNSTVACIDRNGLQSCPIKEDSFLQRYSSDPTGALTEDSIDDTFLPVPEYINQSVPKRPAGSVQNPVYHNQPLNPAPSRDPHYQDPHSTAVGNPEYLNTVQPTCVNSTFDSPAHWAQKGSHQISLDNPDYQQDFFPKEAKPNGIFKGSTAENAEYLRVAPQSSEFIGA
IC50 (PC-3) [nM],IC50 (A549) [nM],IC50 [5] [nM],IC50 [8] [nM],Activity (Tubulin (Homo sapiens)) [a.u.],IC50 (HT-29) [nM],IC50 (MCF7 [16]) [nM],Structure (SMILES),inhibition at 0.78 µg/mL [2] [%],inhibition at 3.13 µg/mL [3] [%],inhibition (Mus musculus [4]),inhibition at 12.5 µg/mL [6] [%],inhibition (Mus musculus [7]),inhibition (Homo sapiens),inhibition at 6.25 µg/mL [11] [%],Activity [12] [%],inhibition (Mus musculus [13]),inhibition (Mus musculus [14]),inhibition at 1.56 µg/mL [17] [%],"viability at 96 h, 50 µM [18] [%]",inhibition (Mus musculus [19]),other results
900,800,100,1480,650,600,100,Cc1c2cc(Cl)ccc2n2cc(Cc3ccccc3)[nH]c(=O)c12,55,72,Active,91,Active,Dose-dependent effect,85,72.3,Active,Active,60,91,Active,inhibition (Mus musculus [1]): Active; inhibition (Mus musculus [9]): Active; inhibition (Mus musculus [10]): Active; inhibition (Mus musculus [15]): Active; Activity [20]: 97.7%; inhibition (Mus musculus [21]): Active; IC50 (MIA PaCa-2): 300 nM; Activity [22]: 85.4%
,,,,,,,Cc1ccc(S(=O)(=O)N2c3ccccc3CC2c2nc(Br)cnc2N)cc1 (stereo not drawn),,,,,,,,,,,,,,GI50 (MDA-MB-435): 290 nM; GI50 (MCF7 [23]): 820 nM
1300,1200,1000,3360,930,900,900,O=c1[nH]c(Cc2ccccc2)cn2c1cc1cc(Cl)ccc12,47,64,Active,81,Active,Dose-dependent effect,72,69.4,Active,Active,55,89,Active,IC50 [24]: 2400 nM; inhibition (Mus musculus [25]): Active; inhibition (Mus musculus [26]): Active; Activity [20]: 91.4%; inhibition (Mus musculus [27]): Active; IC50 (MIA PaCa-2): 1800 nM; Activity [22]: 79.6%; inhibition (Mus musculus [28]): Active
